The subject of test [1] is irradiated scalp. Description: Laser Doppler analysis of perfusion of irradiated scalp, DFO injection (Example 1). Format: in vivo, mice. The note with it: mean±SE. How it is done:
(§1) Adult 60-day-old male Cr1:NU-Fox1NU immunocompromised mice were used for experiments in this study. Twelve mice were treated with a total of 30 Gy external beam radiation, delivered as six fractionated doses of 5 Gy each over 12 days, followed by 5 weeks of recovery. An additional six non-irradiated mice were used as healthy controls for laser Doppler analysis (LDA) and skin analysis. Irradiated mice were divided into two treatment groups: a DFO experimental group and saline control group. Following recovery, mice underwent injection of either DFO (1 mg in 100 μl saline) or 100 μl of saline alone beneath the dermis every other day for a total of seven treatments.
Laser Doppler Analysis (“LDA”) was performed to measure perfusion at the irradiated site using a Perimed PIM 3 laser Doppler perfusion imager (Datavagen, Sweden). The signal generated by the LDA, laser Doppler perfusion index (LDPI), was used for comparative purposes. LDPI is a product of the blood cell velocity and concentration and is represented by a color spectrum, with black/dark blue representing low perfusion and red representing high perfusion. LDA was performed prior to irradiation, following completion of irradiation and recovery, and then twenty-four hours following each treatment with DFO or saline. […]
Five images were taken of each mouse, and the average LDPI of the five images was recorded. […]

Test [2] has as its system fat grafts. Briefly: Fat graft volume retention by micro-CT in DFO preconditioned irradiated scalp (Example 1). In kind it is in vivo. The note with it: DFO preconditioned irradiated mice, mean±SE. As to the method:
as §1
After irradiation, fat grafting was performed on the irradiated mice. After informed consent was obtained, lipoaspirate was obtained from three healthy donors, with no other medical co-morbidities under an approved IRB protocol #2188.
Lipoaspirate was allowed to settle for 15 minutes for layers to separate by gravity sedimentation, and then oil and blood layers were removed by vacuum aspiration. The remaining fat layer was centrifuged at 1300 ref for 3 minutes at 4° C. Any remaining oil and blood was again removed and the remaining fat was transferred into lee syringes for injection through a 14-gauge needle. Fat grafting was performed beneath the scalp by creating a subcutaneous tunnel with the needle and then injecting […] of lipoaspirate in retrograde fashion while pulling the needle out.
Mice were also imaged using a MicroCAT-11 in vivo X-Ray micro-CT scanner (Imtek, Inc.; Knoxville, Tenn.) two days after fat graft injection for baseline volume measurements. Fat graft volume retention was then analyzed every two weeks over a total of 8 weeks using microcomputed tomography, and images were reconstructed as three-dimensional surfaces through cubic-spline interpolation. All reconstructions were performed by a single investigator to avoid inter-observer variability.

Turning to `CC(=O)N(O)CCCCCNC(=O)CCC(=O)N(O)CCCCCNC(=O)CCC(=O)N(O)CCCCCN` [DFO, deferoxamine], the “laser Doppler perfusion index at the scalp” value in test [1] (30 Gy irradiated scalp, 1 mg DFO injected beneath the dermis every other day, after four treatments) was determined as 205.08±2.30 LDPI. Moreover, the “laser Doppler perfusion index following fat grafting” value in test [1] (two weeks following injection of fat grafts, DFO preconditioned mice) was found to be 86.33±2.00 LDPI. Also, the “fat graft volume retention” value in test [2] (two weeks after fat grafting) is listed as 89.24%; in test [2] (week 6 after fat grafting), 73.17%; in test [2] (week 8 after fat grafting) it was 71.75%.

The values are drawn from patent publication US12403106B2, “Prophylactic skin treatment for radiation therapy” (THE BOARD OF TRUSTEES OF THE LELAND STANFORD JUNIOR …, priority 2019, dated 2025).
